Test results from ChEMBL document CHEMBL4507325 (2021).

Assays:
[1] = molecular target: Aspartate aminotransferase, mitochondrial (Homo sapiens, UniProt P00505); test: Aspartate transaminase assay (GOT2)
[2] = molecular target: 5-hydroxytryptamine receptor 1B (Homo sapiens) (UniProt P28222); settings: Compound concentration 10.0 uM
[3] = molecular target: 5-hydroxytryptamine receptor 1D (Homo sapiens) (UniProt P28221); settings: Compound concentration 10.0 uM
[4] = molecular target: 5-hydroxytryptamine receptor 2A (Homo sapiens) (UniProt P28223); settings: Compound concentration 10.0 uM
[5] = molecular target: 5-hydroxytryptamine receptor 2B (Homo sapiens) (UniProt P41595); settings: Compound concentration 10.0 uM
Chain of 5-hydroxytryptamine receptor 2B (Homo sapiens) (P41595 whole entry): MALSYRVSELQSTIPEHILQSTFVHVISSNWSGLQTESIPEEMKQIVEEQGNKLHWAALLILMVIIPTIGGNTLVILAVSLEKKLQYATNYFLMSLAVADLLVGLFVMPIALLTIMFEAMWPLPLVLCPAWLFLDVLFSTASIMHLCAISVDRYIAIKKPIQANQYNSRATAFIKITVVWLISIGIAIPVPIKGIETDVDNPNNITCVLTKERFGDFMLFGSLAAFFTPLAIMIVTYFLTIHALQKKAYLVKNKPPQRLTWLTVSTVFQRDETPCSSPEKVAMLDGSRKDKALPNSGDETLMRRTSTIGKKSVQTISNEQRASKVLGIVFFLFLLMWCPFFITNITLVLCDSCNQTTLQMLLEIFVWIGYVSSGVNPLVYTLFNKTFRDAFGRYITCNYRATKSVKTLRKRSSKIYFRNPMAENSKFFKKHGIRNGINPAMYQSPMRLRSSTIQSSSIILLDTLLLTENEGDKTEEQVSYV

[6] = molecular target: 5-hydroxytryptamine receptor 5A (Homo sapiens) (UniProt P47898); settings: Compound concentration 10.0 uM
[7] = molecular target: 5-hydroxytryptamine receptor 6 (Homo sapiens) (UniProt P50406); settings: Compound concentration 10.0 uM
[8] = molecular target: D(4) dopamine receptor (Homo sapiens) (UniProt P21917); settings: Compound concentration 10.0 uM
Chain of D(4) dopamine receptor (Homo sapiens) (P21917 whole entry): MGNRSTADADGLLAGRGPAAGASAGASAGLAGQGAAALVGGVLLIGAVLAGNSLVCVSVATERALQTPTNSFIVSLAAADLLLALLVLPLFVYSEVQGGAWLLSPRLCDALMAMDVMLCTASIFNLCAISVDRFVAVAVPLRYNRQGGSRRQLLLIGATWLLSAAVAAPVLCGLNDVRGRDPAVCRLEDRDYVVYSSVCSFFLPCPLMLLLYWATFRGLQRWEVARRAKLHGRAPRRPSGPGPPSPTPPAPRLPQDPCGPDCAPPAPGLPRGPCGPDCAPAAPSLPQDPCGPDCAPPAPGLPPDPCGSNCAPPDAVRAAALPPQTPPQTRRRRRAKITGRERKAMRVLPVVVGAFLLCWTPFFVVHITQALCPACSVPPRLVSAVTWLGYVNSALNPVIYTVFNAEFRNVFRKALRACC

[9] = molecular target: Mu-type opioid receptor (Homo sapiens) (UniProt P35372); settings: Compound concentration 10.0 uM
Chain of Mu-type opioid receptor (Homo sapiens) (P35372 whole entry): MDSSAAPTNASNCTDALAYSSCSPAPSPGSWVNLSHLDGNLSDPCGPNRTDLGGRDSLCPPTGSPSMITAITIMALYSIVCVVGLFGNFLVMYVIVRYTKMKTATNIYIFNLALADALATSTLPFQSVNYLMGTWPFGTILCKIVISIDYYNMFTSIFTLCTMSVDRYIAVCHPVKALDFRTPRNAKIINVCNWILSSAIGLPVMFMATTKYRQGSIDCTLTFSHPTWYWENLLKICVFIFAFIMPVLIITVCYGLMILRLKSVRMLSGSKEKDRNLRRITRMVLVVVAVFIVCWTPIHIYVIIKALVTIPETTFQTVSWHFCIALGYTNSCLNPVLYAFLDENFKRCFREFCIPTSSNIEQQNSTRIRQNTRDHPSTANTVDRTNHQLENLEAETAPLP

[10] = molecular target: Histamine H2 receptor (Homo sapiens) (UniProt P25021); settings: Compound concentration 10.0 uM
Chain of Histamine H2 receptor (Homo sapiens) (P25021 whole entry): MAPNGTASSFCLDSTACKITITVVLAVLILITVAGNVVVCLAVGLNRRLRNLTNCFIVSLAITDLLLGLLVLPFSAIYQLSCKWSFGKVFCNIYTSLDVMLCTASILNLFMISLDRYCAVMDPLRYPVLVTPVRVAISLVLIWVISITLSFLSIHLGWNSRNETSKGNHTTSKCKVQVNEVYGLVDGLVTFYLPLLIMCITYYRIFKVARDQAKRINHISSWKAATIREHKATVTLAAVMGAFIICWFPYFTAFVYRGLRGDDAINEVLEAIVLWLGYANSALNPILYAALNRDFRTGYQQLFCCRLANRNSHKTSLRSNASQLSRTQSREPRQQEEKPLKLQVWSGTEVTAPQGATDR

[11] = molecular target: Histamine H4 receptor (Homo sapiens) (UniProt Q9H3N8); settings: Compound concentration 10.0 uM
[12] = molecular target: Alpha-1A adrenergic receptor (Homo sapiens) (UniProt P35348); settings: Compound concentration 10.0 uM
Chain of Alpha-1A adrenergic receptor (Homo sapiens) (P35348 whole entry): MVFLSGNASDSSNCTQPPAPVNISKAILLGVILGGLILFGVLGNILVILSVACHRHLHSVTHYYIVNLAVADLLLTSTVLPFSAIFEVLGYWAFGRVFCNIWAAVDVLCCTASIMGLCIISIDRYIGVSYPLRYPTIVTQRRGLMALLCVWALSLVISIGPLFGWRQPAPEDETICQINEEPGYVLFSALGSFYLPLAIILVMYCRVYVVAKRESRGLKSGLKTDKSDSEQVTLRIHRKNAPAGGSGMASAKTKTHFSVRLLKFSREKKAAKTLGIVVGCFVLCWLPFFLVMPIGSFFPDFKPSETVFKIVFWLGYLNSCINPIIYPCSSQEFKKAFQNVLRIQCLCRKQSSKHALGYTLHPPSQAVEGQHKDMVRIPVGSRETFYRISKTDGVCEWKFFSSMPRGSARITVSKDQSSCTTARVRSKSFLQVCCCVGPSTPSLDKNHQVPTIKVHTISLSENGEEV

[13] = molecular target: Alpha-2B adrenergic receptor (Homo sapiens) (UniProt P18089); settings: Compound concentration 10.0 uM
[14] = molecular target: Alpha-2C adrenergic receptor (Homo sapiens) (UniProt P18825); settings: Compound concentration 10.0 uM
Chain of Alpha-2C adrenergic receptor (Homo sapiens) (P18825 whole entry): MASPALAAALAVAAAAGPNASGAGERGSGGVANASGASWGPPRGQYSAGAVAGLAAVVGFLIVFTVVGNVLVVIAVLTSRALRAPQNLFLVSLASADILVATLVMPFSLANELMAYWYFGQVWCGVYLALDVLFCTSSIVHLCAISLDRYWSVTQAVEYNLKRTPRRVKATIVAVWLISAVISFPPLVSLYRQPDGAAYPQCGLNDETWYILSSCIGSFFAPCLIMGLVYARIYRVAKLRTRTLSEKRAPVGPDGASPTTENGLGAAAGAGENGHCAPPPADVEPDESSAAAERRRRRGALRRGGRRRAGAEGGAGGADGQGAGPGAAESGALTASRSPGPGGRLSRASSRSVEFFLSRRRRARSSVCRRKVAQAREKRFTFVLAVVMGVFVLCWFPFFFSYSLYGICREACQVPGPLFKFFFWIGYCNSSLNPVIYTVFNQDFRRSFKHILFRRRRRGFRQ

[15] = molecular target: Beta-1 adrenergic receptor (Homo sapiens) (UniProt P08588); settings: Compound concentration 10.0 uM
[16] = molecular target: Muscarinic acetylcholine receptor M4 (Homo sapiens) (UniProt P08173); settings: Compound concentration 10.0 uM
[17] = molecular target: Beta-3 adrenergic receptor (Homo sapiens) (UniProt P13945); settings: Compound concentration 10.0 uM
Chain of Beta-3 adrenergic receptor (Homo sapiens) (P13945 whole entry, looked up): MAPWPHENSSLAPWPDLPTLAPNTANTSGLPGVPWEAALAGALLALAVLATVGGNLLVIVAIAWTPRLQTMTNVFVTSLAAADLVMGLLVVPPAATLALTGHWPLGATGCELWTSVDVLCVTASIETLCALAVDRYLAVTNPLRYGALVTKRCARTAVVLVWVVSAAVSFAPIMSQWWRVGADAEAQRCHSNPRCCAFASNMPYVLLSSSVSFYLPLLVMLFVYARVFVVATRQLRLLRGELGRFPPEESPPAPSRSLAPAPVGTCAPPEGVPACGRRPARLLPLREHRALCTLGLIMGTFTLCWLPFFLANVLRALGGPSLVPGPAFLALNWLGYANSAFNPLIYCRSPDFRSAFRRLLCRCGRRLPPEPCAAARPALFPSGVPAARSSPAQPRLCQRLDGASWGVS

[18] = molecular target: Alpha-1D adrenergic receptor (Homo sapiens) (UniProt P25100); settings: Compound concentration 10.0 uM
[19] = molecular target: Adenosine receptor A1 (Homo sapiens) (UniProt P30542); settings: Compound concentration 10.0 uM
Chain of Adenosine receptor A1 (Homo sapiens) (P30542 whole entry): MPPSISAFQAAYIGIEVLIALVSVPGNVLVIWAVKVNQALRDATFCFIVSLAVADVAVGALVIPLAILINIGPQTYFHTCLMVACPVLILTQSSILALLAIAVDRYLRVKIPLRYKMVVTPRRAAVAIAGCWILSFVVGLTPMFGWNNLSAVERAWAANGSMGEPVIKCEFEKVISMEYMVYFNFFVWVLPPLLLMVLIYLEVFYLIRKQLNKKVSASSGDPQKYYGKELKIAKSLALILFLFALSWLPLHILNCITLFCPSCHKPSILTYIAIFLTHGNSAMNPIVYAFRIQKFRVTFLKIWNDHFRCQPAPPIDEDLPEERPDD

[20] = molecular target: Adenosine receptor A3 (Homo sapiens) (UniProt P0DMS8); settings: Compound concentration 10.0 uM
[21] = molecular target: Alpha-1A adrenergic receptor (Homo sapiens) (UniProt P35348); settings: Rattus norvegicus; Compound concentration 10.0 uM
[22] = molecular target: Alpha-2A adrenergic receptor (Homo sapiens) (UniProt P08913); settings: Compound concentration 10.0 uM
[23] = molecular target: B2 bradykinin receptor (Homo sapiens) (UniProt P30411); settings: Compound concentration 10.0 uM
[24] = molecular target: Endothelin-1 receptor (Homo sapiens) (UniProt P25101); settings: Compound concentration 10.0 uM
Chain of Endothelin-1 receptor (Homo sapiens) (P25101 whole entry): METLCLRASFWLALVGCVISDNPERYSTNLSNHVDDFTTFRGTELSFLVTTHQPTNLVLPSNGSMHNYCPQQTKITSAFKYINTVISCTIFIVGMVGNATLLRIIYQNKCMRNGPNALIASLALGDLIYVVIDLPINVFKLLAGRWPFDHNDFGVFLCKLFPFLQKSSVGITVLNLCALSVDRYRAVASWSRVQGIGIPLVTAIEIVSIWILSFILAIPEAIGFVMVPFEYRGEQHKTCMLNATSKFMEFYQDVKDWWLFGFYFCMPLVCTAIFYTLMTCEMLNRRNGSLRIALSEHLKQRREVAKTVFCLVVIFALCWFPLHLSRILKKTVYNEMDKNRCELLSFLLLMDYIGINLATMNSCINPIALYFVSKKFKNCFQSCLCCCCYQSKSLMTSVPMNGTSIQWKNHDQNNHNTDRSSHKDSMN

[25] = molecular target: Endothelin receptor type B (Homo sapiens) (UniProt P24530); settings: Compound concentration 10.0 uM
[26] = molecular target: GABA-A receptor; anion channel (Rattus norvegicus) (UniProt O09028+P15431+P18506+P18508+P19969+P20236+P23574+P23576+P28471+P28473+P30191+P62813+P63079+P63138+Q91ZM7+Q9ES14); settings: Compound concentration 10.0 uM
[27] = molecular target: T1, Glutamate NMDA receptor (Rattus norvegicus) (UniProt P35439+Q00959+Q00960+Q00961+Q62645+Q8VHN2+Q9R1M7); settings: Compound concentration 10.0 uM
[28] = molecular target: T1, Glutamate NMDA receptor (Rattus norvegicus); settings: Compound concentration 10.0 uM; remark: listed apart in the source
[29] = molecular target: Histamine H2 receptor (Homo sapiens) (UniProt P25021); settings: Compound concentration 10.0 uM; remark: listed apart in the source
[30] = molecular target: Muscarinic acetylcholine receptor M1 (Homo sapiens) (UniProt P11229); settings: Compound concentration 10.0 uM
[31] = molecular target: Muscarinic acetylcholine receptor M2 (Homo sapiens) (UniProt P08172); settings: Compound concentration 10.0 uM
[32] = molecular target: Muscarinic acetylcholine receptor M3 (Homo sapiens) (UniProt P20309); settings: Compound concentration 10.0 uM
[33] = molecular target: Kappa-type opioid receptor (Homo sapiens) (UniProt P41145); settings: Compound concentration 10.0 uM
Chain of Kappa-type opioid receptor (Homo sapiens) (P41145 whole entry): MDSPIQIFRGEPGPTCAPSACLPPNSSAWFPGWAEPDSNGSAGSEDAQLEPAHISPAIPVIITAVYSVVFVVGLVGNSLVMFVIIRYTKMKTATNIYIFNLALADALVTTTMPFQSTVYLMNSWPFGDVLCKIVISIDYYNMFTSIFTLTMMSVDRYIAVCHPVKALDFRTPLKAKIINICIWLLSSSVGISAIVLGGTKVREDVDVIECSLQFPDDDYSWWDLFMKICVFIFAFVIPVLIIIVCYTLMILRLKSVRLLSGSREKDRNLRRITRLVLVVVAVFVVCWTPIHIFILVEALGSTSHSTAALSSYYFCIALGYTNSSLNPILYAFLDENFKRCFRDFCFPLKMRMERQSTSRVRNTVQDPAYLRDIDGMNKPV

[34] = molecular target: Mu-type opioid receptor (Homo sapiens) (UniProt P35372); settings: Compound concentration 10.0 uM; remark: listed apart in the source
[35] = molecular target: Sodium-dependent dopamine transporter (Homo sapiens) (UniProt Q01959); settings: Compound concentration 10.0 uM
[36] = species on record: Rattus norvegicus; settings: Compound concentration 10.0 uM
[37] = molecular target: Beta-3 adrenergic receptor (Homo sapiens) (UniProt P13945); settings: Compound concentration 10.0 uM; remark: listed apart in the source
[38] = molecular target: D(2) dopamine receptor (Homo sapiens) (UniProt P14416); settings: Compound concentration 10.0 uM
Chain of D(2) dopamine receptor (Homo sapiens) (P14416 whole entry): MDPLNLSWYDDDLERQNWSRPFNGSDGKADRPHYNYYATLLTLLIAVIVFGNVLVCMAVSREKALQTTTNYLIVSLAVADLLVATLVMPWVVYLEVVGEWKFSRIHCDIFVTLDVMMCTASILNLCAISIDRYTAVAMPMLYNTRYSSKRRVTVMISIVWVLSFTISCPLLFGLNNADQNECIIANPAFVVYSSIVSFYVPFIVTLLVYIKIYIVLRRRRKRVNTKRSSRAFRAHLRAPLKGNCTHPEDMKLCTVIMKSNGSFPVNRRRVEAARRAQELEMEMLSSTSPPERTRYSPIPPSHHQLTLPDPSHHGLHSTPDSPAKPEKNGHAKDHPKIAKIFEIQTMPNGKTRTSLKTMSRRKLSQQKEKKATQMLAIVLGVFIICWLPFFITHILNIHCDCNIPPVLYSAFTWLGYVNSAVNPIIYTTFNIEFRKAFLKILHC

[39] = molecular target: 5-hydroxytryptamine receptor 2C (Homo sapiens) (UniProt P28335); settings: Compound concentration 10.0 uM
[40] = molecular target: Vasopressin V1a receptor (Homo sapiens) (UniProt P37288); settings: Compound concentration 10.0 uM
[41] = molecular target: Alpha-2C adrenergic receptor (Homo sapiens) (UniProt P18825); settings: Compound concentration 10.0 uM; remark: listed apart in the source
[42] = molecular target: Cannabinoid receptor 2 (Homo sapiens) (UniProt P34972); settings: Compound concentration 10.0 uM
[43] = molecular target: B1 bradykinin receptor (Homo sapiens) (UniProt P46663); settings: Compound concentration 10.0 uM
Chain of B1 bradykinin receptor (Homo sapiens) (P46663 whole entry): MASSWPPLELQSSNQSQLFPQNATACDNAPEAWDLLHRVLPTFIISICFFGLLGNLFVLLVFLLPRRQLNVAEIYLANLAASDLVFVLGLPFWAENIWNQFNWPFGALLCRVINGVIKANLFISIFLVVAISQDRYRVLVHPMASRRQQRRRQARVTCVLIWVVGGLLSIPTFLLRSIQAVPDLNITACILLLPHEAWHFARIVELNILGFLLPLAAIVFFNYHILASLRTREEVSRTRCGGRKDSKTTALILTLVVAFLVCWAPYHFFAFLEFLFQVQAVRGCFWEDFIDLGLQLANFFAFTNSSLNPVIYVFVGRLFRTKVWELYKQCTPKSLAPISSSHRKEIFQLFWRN

[44] = molecular target: Glutamate receptor ionotropic, kainate (Rattus norvegicus) (UniProt P22756+Q01812+P42260+P42264+Q63273); settings: Compound concentration 10.0 uM
[45] = species on record: Homo sapiens; settings: Compound concentration 10.0 uM
[46] = species on record: Oryctolagus cuniculus; settings: Compound concentration 10.0 uM

`Cc1ccccc1Oc1cc(-n2c(=O)cc(C(F)(F)F)[nH]c2=O)c2ccccc2c1Cl` [BAY-069] was tested, and the IC50 [1] was > 50 µM (not active), the inhibition [2] was 4.02% and the inhibition [3] was 0.75%. It also gave an inhibition [4] of -2.88%, an inhibition [5] of -0.49% and an inhibition [6] of 5.61%. For the same compound, the inhibition [7] was 13%, the inhibition [8] was 9.05% and the inhibition [9] was 20.9%. For the same compound, the inhibition [10] was 5.46%, the inhibition [11] was -6.41% and the inhibition [12] was -2.81%. For the same compound, the inhibition [13] was -8.63%, the inhibition [14] was 10.8% and the inhibition [15] was -5.52%. The inhibition [16] was -8.67%, the inhibition [17] was 22.9% and the inhibition [18] was -5.48%. For the same compound, the inhibition [19] was 27%, the inhibition [20] was -2% and the inhibition [21] was 5%. It also gave an inhibition [22] of 2%, an inhibition [23] of 1% and an inhibition [24] of -2%. The inhibition [25] was -9%, the inhibition [26] was 4% and the inhibition [27] was 11%. It also gave an inhibition [28] of -2%, an inhibition [29] of -2% and an inhibition [30] of 8%. It also gave an inhibition [31] of 4%, an inhibition [32] of -7% and an inhibition [33] of -7%. It also gave an inhibition [34] of 0%, an inhibition [35] of 33% and an inhibition [36] of 46%. For the same compound, the inhibition [37] was 15%, the inhibition [38] was -5% and the inhibition [39] was 3%. The inhibition [40] was 7%, the inhibition [41] was 6% and the inhibition [42] was -5%. For the same compound, the inhibition [43] was -8%, the inhibition [44] was -4% and the inhibition [45] was -8%. It also gave an inhibition [46] of 11%.
